Data set [1] is described as follows: Melt viscosity at 150° C. (ASTM D4287, ICI viscometer method). It counts as physicochemical. The following applies: measurement temperature 150° C. The protocol:
1) Melt viscosity at 150° C.: measured by the following apparatus according to ASTM D4287.
Apparatus name: MODEL CV-1S manufactured by Codex

Data set [2] can be described thus: Viscosity of the liquid epoxy resin. The data set is classed as physicochemical. Conditions: epoxy resin as obtained. Here is the method:
In a flask equipped with a thermometer, a dropping funnel, a condenser tube, and a stirrer, while being purged with nitrogen gas, 43 g of 2,4,4′-trihydroxybiphenyl, 295 g of epichlorohydrin, and 103 g of n-butanol were charged and dissolved. After the temperature was raised to 40° C., 53 g of a 48% by mass sodium hydroxide aqueous solution was added over 8 hours. The temperature was then further raised to 50° C., and the mixture was allowed to react for further 1 hour. After the completion of the reaction, 83 g of water was added, the mixture was allowed to stand, and then the lower layer was disposed. After that, unreacted epichlorohydrin was removed by distillation at 150° C. under reduced pressure. To the obtained crude epoxy resin, 118 g of methyl isobutyl ketone was added to dissolve the epoxy resin. To the solution, 67 g of a 10% by mass sodium hydroxide aqueous solution was further added, the mixture was allowed to react at 80° C. for 2 hours, and then washing with water was repeated three times until the pH of the washing liquid became neutral. Next, the system was dehydrated by azeotropic distillation, and subjected to microfiltration, followed by removing the solvent by distillation under reduced pressure, whereby 63 g of 2,4,4′-triglycidyloxybiphenyl (A-1) which was the target epoxy resin was obtained. […]

`c1cc(-c2ccc(OCC3CO3)cc2OCC2CO2)ccc1OCC1CO1` (stereo not shown) [Example A-1, 2,4,4′-triglycidyloxybiphenyl] yielded a melt viscosity in data set [1] of 0.14 dPa·s. For the same compound, the “viscosity of liquid form” value in data set [2] is 943 Pa-s.

As to `c1cc(-c2cc(OCC3CO3)cc(OCC3CO3)c2)ccc1OCC1CO1` (stereo not shown) [Example A-2, 3,4′,5-triglycidyloxybiphenyl], in data set [1], the melt viscosity turned out to be 0.27 dPa·s.

For `c1c(OCC2CO2)cc(-c2cc(OCC3CO3)cc(OCC3CO3)c2)cc1OCC1CO1` (stereo not shown) [Example A-3, 3,3′,5,5′-tetraglycidyloxybiphenyl], the melt viscosity in data set [1] worked out at 0.57 dPa·s.

Source of the values: patent US20170158807A1, “EPOXY RESIN COMPOSITION FOR ELECTRONIC MATERIAL, CURED PRODUCT THEREOF AND ELECTRONIC MEMBER” (DIC CORPORATION, priority 2014, published 2017).
